# Results: patent US4228174A, “Clavulanic acid ethers” (priority 1975, dated 1980)
# Structures can show the parent of a compound that is named as a salt.
# Tests used:
# [1] = test system: E. coli JT 39 (R+) infection; assay: CD50 of amoxycillin with a salt of O-ethylclavulanic acid or clavulanic acid, dosing at 1 and 5 hours; format: in vivo; settings: (×2) mice, sub-cutaneous at 1 and 5 hours
# Experimental: (§1) e. CD50 values of amoxycillin alone and together with a salt of O-ethylclavulanate acid against an E. coli JT 39 (R^+) infection. The test compounds were administered to mice sub-cutaneously in freshly prepared buffered saline (0.4 mg/ml) at 1 hour and 5 hours post inter peritoneal infection.
# [2] = test system: E. coli JT 39 (R+) infection; assay: CD50 of amoxycillin with a salt of O-ethylclavulanic acid or clavulanic acid, similar test dosing at 1, 3 and 5 hours; format: in vivo; settings: (×3) dosing at 1, 3 and 5 hours post infection
# Experimental: as §1
# In a similar test dosing at 1, 3 and 5 hours post infection the following results were obtained: […]
# [3] = test system: E. coli JT 39 (R+) infection; assay: CD50 with sodium O-methylclavulanate or sodium clavulanate as synergist, dosing at 1 and 5 hours; format: in vivo; settings: (×2) sub-cutaneous at 1 and 5 hours post infection
# Experimental: d. […]
# The test compounds were administered sub-cutaneously in freshly prepared buffered saline at 1 hour and 5 hours post intra peritoneal infection: […]
# [4] = test system: Staphylococcus aureus Russell; assay: Standard MIC test of ampicillin in the presence of compounds of the invention; format: cell-based; settings: ampicillin alone, read-out: Concentration of ampicillin in the absence of synergist that did not inhibit growth
# Experimental: b. When tested in standard MIC tests in combination with ampicillin the compounds of this invention are seen to enhance the effectiveness of the penicillin against various gram-positive and gram-negative organisms such as strains of Staphylococcus aureus Russell, Klebsiella aerogenes, Proteus mirabilis and Escherichia coli: for example the following MIC values against Staphylococcus aureus Russell were obtained for ampicillin in the presence of 1 μg/ml of certain compounds of the invention:
# None of the synergists inhibited the growth of the test organism at 5 μg/ml.
# [5] = test system: Staph. M B9; assay: MIC of ampicillin alone and together with sodium O-methylclavulanate; format: cell-based; settings: Staphylococcus aureus, 0 μg/ml of sodium O-methylclavulanate
# Description: (§2) c. MIC values of ampicillin alone and together with sodium O-methylclavulanate against 3 strains of Straphylococcus aureus and 3 strains of R^+ E. coli
# [6] = test system: E. coli JT 98; assay: as above; format: cell-based; settings: Escherichia coli, JT98, 0 μg/ml of sodium O-methylclavulanate
# Description: as §2
# [7] = test system: Staph. Russell; assay: as above; format: cell-based; settings: Staphylococcus aureus, 0 μg/ml of sodium O-methylclavulanate
# Description: as §2
# [8] = test system: E. coli JT 39; assay: as above; format: cell-based; settings: Escherichia coli, JT39, 0 μg/ml of sodium O-methylclavulanate
# Description: as §2
# [9] = test system: E. coli JT 68; assay: as above; format: cell-based; settings: Escherichia coli, JT68, 0 μg/ml of sodium O-methylclavulanate
# Description: as §2
# [10] = test system: Staph. H; assay: as above; format: cell-based; settings: Staphylococcus aureus, 0 μg/ml of sodium O-methylclavulanate
# Description: as §2
# [11] = Blood level in test mammals; format: in vivo; settings: compared with an equivalent amount of the salt of clavulanic acid
# [12] = Toxicity in mice, sub-cutaneous administration (LD50); settings: mouse, in vivo, sc
# [13] = Blood levels in mice after oral administration; format: in vivo; settings: mouse, 20 mg/kg, read-out: Blood level
# Experimental: b. Blood levels in mice after oral administration of 20 mg/kg of sodium O-methylclavulanate
# [14] = target: Proteus mirabilis C889 β-lactamase; assay: β-lactamase inhibition I50; format: biochemical
# [15] = Blood levels in mice after sub-cutaneous administration; format: in vivo; settings: mouse, sc, 50 mg/kg, read-out: Blood level, mean result for 5 mice; for concentration at 0.5 h: 30 min; for concentration at 0.75 h: 45 min; for concentration at 1 h: 60 min; for concentration at 1.5 h: 90 min
# Experimental: a. Blood levels in mice after sub-cutaneous administration of 50 mg/kg of a solution of sodium O-methylclavulanate
# [16] = target: T1, Escherichia coli JT4 β-lactamase (Escherichia coli, UniProt P62593); assay: β-lactamase inhibition I50; format: biochemical
# T1 construct: host or cells: Escherichia coli JT4
# T1 sequence (P62593 24-286 limits assumed): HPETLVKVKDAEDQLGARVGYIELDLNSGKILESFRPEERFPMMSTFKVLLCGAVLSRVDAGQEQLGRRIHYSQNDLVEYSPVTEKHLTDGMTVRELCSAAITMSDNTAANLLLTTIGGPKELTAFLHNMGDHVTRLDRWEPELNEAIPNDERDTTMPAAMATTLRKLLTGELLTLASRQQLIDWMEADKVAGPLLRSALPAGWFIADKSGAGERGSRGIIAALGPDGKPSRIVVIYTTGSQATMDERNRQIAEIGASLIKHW
# [17] = target: T2, Staphylococcus aureus Russell β-lactamase (Staphylococcus aureus, UniProt P00807); assay: β-lactamase inhibition I50; format: biochemical
# T2 construct: host or cells: Staphylococcus aureus Russell
# T2 sequence (P00807 25-281): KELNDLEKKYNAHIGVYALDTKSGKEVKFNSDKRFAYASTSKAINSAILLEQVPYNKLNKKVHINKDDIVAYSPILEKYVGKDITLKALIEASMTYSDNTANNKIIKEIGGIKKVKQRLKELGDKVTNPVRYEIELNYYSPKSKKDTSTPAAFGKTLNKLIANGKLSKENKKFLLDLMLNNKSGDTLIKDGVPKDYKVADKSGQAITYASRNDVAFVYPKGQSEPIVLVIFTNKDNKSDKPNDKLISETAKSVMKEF
# [18] = target: Klebsiella aerogenes E70 β-lactamase; assay: β-lactamase inhibition I50; format: biochemical
# [19] = test system: 3 strains of Straphylococcus aureus and 3 strains of R+ E. coli; assay: MIC of sodium O-methylclavulanate alone against each test organism; format: cell-based, Staphylococcus aureus; E. coli; settings: read-out: MIC of sodium O-methylclavulanate against each test organism
# Experimental: as §2
# The MIC of sodium O-methylclavulanate against each test organism was in the range 20-40 μg/ml.
# [20] = test system: Klebsiella I.112 infection; assay: CD50 of amoxycillin alone and with synergist, oral dosing at 1, 3 and 5 hours; format: in vivo; settings: (×3) mice, oral at 1, 3 and 5 hours post infection
# Experimental: f. CD50 values of amoxycillin alone and together with a salt of O-methylclavulanic acid or O-ethylclavulanic acid against a Klebsiella I.112 infection. The test compounds were administered orally to mice at 1, 3 and 5 hours post inter peritoneal infection.
# [In these tests amoxycillin trihydrate equivalent to the stated weights of amoxycillin were used].
# [21] = target: T3, Pseudomonas dalgleish β-lactamase (Pseudomonas aeruginosa, UniProt P16897); assay: β-lactamase inhibition I50; format: biochemical
# T3 construct: host or cells: Pseudomonas aeruginosa Dalgleish
# T3 sequence (P16897 18-288): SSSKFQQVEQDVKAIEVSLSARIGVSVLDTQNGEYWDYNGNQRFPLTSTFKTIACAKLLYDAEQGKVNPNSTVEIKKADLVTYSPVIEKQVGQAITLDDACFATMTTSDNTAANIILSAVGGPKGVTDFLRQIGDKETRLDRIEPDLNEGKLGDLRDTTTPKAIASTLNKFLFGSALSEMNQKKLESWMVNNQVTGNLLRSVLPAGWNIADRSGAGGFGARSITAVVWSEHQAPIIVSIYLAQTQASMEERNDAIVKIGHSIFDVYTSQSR
# [22] = target: P. moig, Cr. β-lactamase; assay: β-lactamase inhibition I50; format: biochemical
# [23] = target: T4, Escherichia coli JT410 β-lactamase (Escherichia coli, UniProt P00811); assay: β-lactamase inhibition I50; format: biochemical
# T4 construct: host or cells: Escherichia coli JT410
# T4 sequence (P00811 20-377): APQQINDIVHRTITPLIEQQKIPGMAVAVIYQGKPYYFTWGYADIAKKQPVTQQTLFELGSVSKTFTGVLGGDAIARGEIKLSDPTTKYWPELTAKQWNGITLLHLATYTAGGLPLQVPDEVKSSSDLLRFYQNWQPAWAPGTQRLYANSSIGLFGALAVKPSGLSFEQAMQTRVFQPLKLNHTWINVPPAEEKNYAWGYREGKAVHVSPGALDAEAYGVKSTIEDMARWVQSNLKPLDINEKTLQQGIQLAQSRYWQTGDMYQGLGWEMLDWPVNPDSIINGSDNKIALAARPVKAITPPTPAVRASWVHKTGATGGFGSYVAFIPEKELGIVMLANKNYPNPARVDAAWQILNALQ
# [24] = target: Pseudomonas aeruginosa β-lactamase; assay: β-lactamase inhibition I50; format: biochemical
# [25] = columns Synergist = Salt of clavulanic acid
compound,measurement,setting,value
CC1(C)S[C@@H]2[C@H](NC(=O)[C@H](N)c3ccc(O)cc3)C(=O)N2[C@H]1C(=O)O [Sodium Amoxycillin],CD50 of Sodium Amoxycillin alone,[1]; [25],> 1000 mg/kg
same,ED50,"[1]; Escherichia coli, sc, columns Synergist = Salt of O-ethylclavulanic acid, read-out: CD50 of Sodium Amoxycillin alone",> 1000 mg/kg
same,CD50 of Sodium Amoxycillin alone,[2]; [25],> 1000 mg/kg
same,ED50,"[2]; Escherichia coli, in Mus musculus, sc, columns Synergist = Salt of O-ethylclavulanic acid, read-out: CD50 of Sodium Amoxycillin alone",> 1000 mg/kg
same,CD50 of Sodium Amoxycillin alone,[3]; columns Synergist = Sodium clavulanate,> 1000 mg/kg
same,ED50,"[3]; Escherichia coli, sc, columns Synergist = Sodium O-methylclavulanate, read-out: CD50 of Sodium Amoxycillin alone",> 1000 mg/kg
"CC1(C)S[C@@H]2[C@H](NC(=O)[C@H](N)c3ccccc3)C(=O)N2[C@H]1C(=O)O [Ampicillin, ampicillin]",MIC,[4],> 250 µg/mL
same,MIC,[5],640 µg/mL
same,MIC,[6],1280 µg/mL
same,MIC,[7],80 µg/mL
same,MIC,[8],> 2560 µg/mL
same,MIC,[9],2560 µg/mL
same,MIC,[10],640 µg/mL
COC/C=C1\O[C@@H]2CC(=O)N2[C@H]1C(=O)O [salt of O-methylclavulanic acid],"Blood level after administration, in words",[11],more prolonged blood level
"N#CCOC/C=C1\O[C@@H]2CC(=O)N2[C@H]1C(=O)O [Example 12, Sodium 9-O-cyanomethylclavulanate]",LD50,[12],> 250 mg/kg
"COC/C=C1\O[C@@H]2CC(=O)N2[C@H]1C(=O)O [Example 3, Sodium 9-O-methylclavulanate]",concentration at 0.25 h,[13]; 15 min,5200 ng/mL
same,concentration at 0.5 h,[13]; 30 min,3400 ng/mL
same,concentration at 0.75 h,[13]; 45 min,2200 ng/mL
same,concentration at 1 h,[13]; 60 min,1200 ng/mL
same,concentration at 1.5 h,[13]; 90 min,500 ng/mL
same,"β-lactamase inhibition I50, Proteus mirabilis C889",[14],0.01 µg/mL
same,concentration at 10 min,[15],14500 ng/mL
same,concentration at 20 min,[15],12800 ng/mL
same,concentration at 0.5 h,[15],7900 ng/mL
same,concentration at 0.75 h,[15],4100 ng/mL
same,concentration at 1 h,[15],1400 ng/mL
same,concentration at 1.5 h,[15],480 ng/mL
same,IC50,[16],844 nM
same,IC50,[17],235 nM
same,"β-lactamase inhibition I50, Klebsiella aerogenes E70",[18],0.07 µg/mL
same,MIC,[19],20 to 40 µg/mL
"O=C(O)[C@H]1/C(=C/CO)O[C@@H]2CC(=O)N21 [Sodium clavulanate, reference compound]",concentration at 10 min,[15],9300 ng/mL
same,concentration at 20 min,[15],8700 ng/mL
same,concentration at 0.5 h,[15],2990 ng/mL
same,concentration at 0.75 h,[15],1950 ng/mL
same,concentration at 1 h,[15],500 ng/mL
same,concentration at 1.5 h,[15],90 ng/mL
CC1(C)S[C@@H]2[C@H](NC(=O)[C@H](N)c3ccc(O)cc3)C(=O)N2[C@H]1C(=O)O [Amoxycillin],ED50,[20],> 1000 mg/kg
"CCOC(=O)COC/C=C1\O[C@@H]2CC(=O)N2[C@H]1C(=O)OCc1ccccc1 [Example 6, Benzyl 9-O-ethoxycarbonylmethylclavulanate]","β-lactamase inhibition I50, Proteus mirabilis C889",[14],1.0 µg/mL
same,IC50,[16],373 nM
same,IC50,[17],320 nM
same,"β-lactamase inhibition I50, Klebsiella aerogenes E70",[18],0.30 µg/mL
"O=C(O)[C@H]1/C(=C/COCc2ccccc2)O[C@@H]2CC(=O)N21 [Example 5, Sodium 9-O-benzylclavulanate]",LD50,[12],> 250 mg/kg
same,"β-lactamase inhibition I50, Proteus mirabilis C889",[14],0.02 µg/mL
same,IC50,[21],27.7 nM
same,IC50,[16],346 nM
same,IC50,[17],17.3 nM
same,"β-lactamase inhibition I50, Klebsiella aerogenes E70",[18],0.04 µg/mL
"COC/C=C1\O[C@@H]2CC(=O)N2[C@H]1C(=O)OC [Example 1, Methyl 9--O--methylclavulanate]","β-lactamase inhibition I50, P. moig, Cr.",[22],0.68 µg/mL
same,IC50,[23],13600 nM
same,"β-lactamase inhibition I50, Pseudomonas aeruginosa",[24],1.9 µg/mL
same,IC50,[16],3960 nM
same,IC50,[17],2200 nM
same,"β-lactamase inhibition I50, Klebsiella aerogenes E70",[18],0.25 µg/mL
"COC(=O)[C@H]1/C(=C/COCc2ccccc2)O[C@@H]2CC(=O)N21 [Example 4, Methyl 9-O-benzylclavulanate]",IC50,[16],2640 nM
same,IC50,[17],16.5 nM
same,"β-lactamase inhibition I50, Klebsiella aerogenes E70",[18],0.8 µg/mL
"CCOC(=O)COC/C=C1\O[C@@H]2CC(=O)N2[C@H]1C(=O)O [Example 7, Sodium 9-O-ethoxycarbonylmethylclavulanate]","β-lactamase inhibition I50, Proteus mirabilis C889",[14],0.025 µg/mL
same,IC50,[16],561 nM
same,IC50,[17],154 nM
same,"β-lactamase inhibition I50, Klebsiella aerogenes E70",[18],0.034 µg/mL
"COC/C=C1\O[C@@H]2CC(=O)N2[C@H]1C(=O)OCc1ccccc1 [Example 2, Benzyl 9-O-methylclavulanate]","β-lactamase inhibition I50, Proteus mirabilis C889",[14],< 0.07 µg/mL
same,IC50,[21],< 231 nM
same,"β-lactamase inhibition I50, Pseudomonas aeruginosa",[24],1.4 µg/mL
same,IC50,[16],330 nM
same,IC50,[17],165 nM
same,"β-lactamase inhibition I50, Klebsiella aerogenes E70",[18],0.05 µg/mL
